In assay [1] the target is T1, secNluc-D3R (UniProt P35462+Q9GV45, A31E/A60N/A81I/F95D/I117V/K70R/L54V/L99Q/M102K/N193R/P142E/Q151K/Q38R/Q45L/V71I/Y165I). As to the kind of experiment: Live-cell NanoBRET saturation binding, HEK293T cells. Here is the method: Figure 5 NanoBRET saturation curves for the fluorescent ligands 10a-c. Saturation binding experiments were performed with live HEK293T cells expressing secNluc-D3R and the fluorescent ligands 10a, 10b and 10c, comprising a trifluorethyl-rhodamine derivative, a Cy3B and an Alexa488 fluorophore, respectively. […] Data points show mean ± SEM of one representative out of n = 5 (for 10a) or n = 4 (for 10b,c) experiments, with each condition carried out in triplicate. The netBRET signal was calculated as the difference between total BRET and the signal obtained in the absence of a fluorescent ligand.
T1 sequence (Q9GV45+P35462 fused with the stated changes): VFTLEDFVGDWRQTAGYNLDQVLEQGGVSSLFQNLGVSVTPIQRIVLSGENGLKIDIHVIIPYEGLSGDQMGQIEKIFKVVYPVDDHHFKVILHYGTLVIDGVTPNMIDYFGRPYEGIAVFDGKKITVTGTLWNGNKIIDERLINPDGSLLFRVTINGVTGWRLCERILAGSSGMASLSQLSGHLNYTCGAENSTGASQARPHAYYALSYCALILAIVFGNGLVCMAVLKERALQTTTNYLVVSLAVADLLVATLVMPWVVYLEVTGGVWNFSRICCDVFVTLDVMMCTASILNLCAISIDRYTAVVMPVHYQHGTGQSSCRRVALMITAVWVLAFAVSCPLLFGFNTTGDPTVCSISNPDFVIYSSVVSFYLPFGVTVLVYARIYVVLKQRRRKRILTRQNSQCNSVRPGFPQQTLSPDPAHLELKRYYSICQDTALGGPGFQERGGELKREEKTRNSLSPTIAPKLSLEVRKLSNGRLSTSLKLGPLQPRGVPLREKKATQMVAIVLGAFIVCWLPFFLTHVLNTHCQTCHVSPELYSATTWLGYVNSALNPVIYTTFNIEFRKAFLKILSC
For whole cell NanoBRET saturation assays, HEK293T cells were transfected with secNluc-D3R employing Mirus TransIT-293 (3:1 reagent to DNA ratio). After 24 h at 37 °C, 5% CO2, cells were detached using Versene and transferred to white, F-bottom 384-well plates at a density of 2,500 cells/well and incubated for another 24 h at 37 °C, 5% CO2. Cells were washed with PBS and incubated for 30 min at 37 °C with 5% FBS in DMEM without phenol red, before the fluorescent ligands (5 µL, diluted into DMEM without phenol red with 5% FBS from a 1 mM DMSO-stock) were added. […] After 1 h incubation with the ligands at 37 °C, furimazine (Promega, final dilution 1:500 to 1:2,500) was added, followed by a 5 min incubation at room temperature in the dark. BRET was measured as the ratio of acceptor fluorescence and donor luminescence employing a CLARIOstar microplate reader equipped with 475/30 nm and 535/30 or 580/30 emission filters, respectively. Total, non-specific and specific binding were analyzed employing the algorithms for one-site saturation binding implemented in PRISM6.0 or 8.0.

In assay [2] the target is T1, secNluc-D3R. As to the kind of experiment: Membrane-based NanoBRET saturation binding. Conditions: membranes from HEK293T cells expressing secNluc-D3R; KD ± SEM. The procedure:
. After addition of furimazine (1:5,000, final volume 35 µL), and 5 min incubation at room temperature in the dark, BRET readings were obtained using a CLARIOstar plate reader equipped with a 475/30 nm donor together with a 535/30 nm (for 10a) or 620/30 nm (for 10b) acceptor emission filter. […]. Kinetic assays were monitored at room temperature and minimal possible cycle time of the CLARIOstar was used for each measurement. Data was fitted to one phase association and dissociation equations in PRISM6.0 to determine the kinetic constants. In competition binding experiments, membranes were incubated with serial dilutions of unlabeled ligands and the fluorescent ligand 10a (10 or 100 nM) for 90 min at 37 °C. Addition of furimazine (1:5,000) and BRET measurements were carried out as described above. Data analysis was performed using the one site—fit Ki equation in PRISM6.0 to determine the inhibition constants (Ki) of the unlabeled ligands.
Supplementary Fig. 4. NanoBRET saturation curves obtained with ligands 10a,b and membranes from HEK293T expressing secNluc- D3R. […]
calculated as the difference between total and non- specific binding . BRET was measured after 90 min incubation at 37 °C and represents mean ± SD of an individual representative out of 3 – 4 independent experiments, with each condition in triplicate. […]
A general note: BRET reads energy transfer from a luciferase to a nearby fluorophore.

Where [3] appears, read: read-out: KD NanoBRET saturation; live HEK293T cells expressing secNluc-D3R; KD ± SEM.

This note sets out measurements from publication PMC7736868, “Fluorescent ligands for dopamine D2/D3 receptors” (Scientific Reports, 2020).

On to `CCCN(CCCCc1cn(-c2ccc(C(=O)NCCCNC(=O)c3ccc(-c4c5ccc(=N)c(S(=O)(=O)O)c-5oc5c(S(=O)(=O)O)c(N)ccc45)c(C(=O)O)c3)cc2)nn1)C1Cc2ccccc2C1` [10c], for which, on secNluc-D3R [1] (setting [3]), the Kd came out at 0.72 ± 0.08 nM.

For the molecule `CCCN(CCCCc1cn(-c2ccc(CNC(=O)c3ccc(-c4c5ccc(=NCC(F)(F)F)cc-5oc5cc(NCC(F)(F)F)ccc45)c(C(=O)O)c3)cc2)nn1)C1Cc2ccccc2C1` [10a], the Kd was 0.9 ± 0.14 nM at secNluc-D3R [2] and 0.72 ± 0.07 nM at secNluc-D3R [1] (live HEK293T cells expressing secNluc-D3R; KD ± SEM; read-out: KD NanoBRET saturation).

Turning to `CCCN(CCCCc1cn(-c2ccc(C(=O)NCCCNC(=O)Cc3ccc4c(c3)C(C)(C)C3=C5C=C6C7=[N+](CCC6OC5CCN34)c3ccc(S(=O)(=O)[O-])cc3C7(C)C)cc2)nn1)C1Cc2ccccc2C1` (centres unmarked) [10b], the Kd at secNluc-D3R [2] was determined as 11.3 ± 1.6 nM; on secNluc-D3R [1] (setting [3]) it was 12.1 ± 1.7 nM.
